Here are results for one compound from patent publication US20220211858A1, “TUBULAR SUPRAMOLECULAR POLYMERS” (priority 2019, published 2022).

As a reminder, the IC50 is the concentration at which inhibition is half-maximal. A high value points to weaker potency in that assay.

The subject of data set [1] is human glioblastoma U87 MG cells. As to the kind of experiment: Antitumor efficacy study for systemic delivery, subcutaneous U87 MG tumor. To be noted: controls: free CPT 4.5 mg/kg i.p.; irinotecan 60 mg/kg i.p. In kind it is in vivo, athymic nude mice. The protocol: A total of 2×10^6 human glioblastoma U87 MG cells were subcutaneously injected into the right shoulder of athymic nude mice (8-9 weeks old). The mice were used for the efficacy study after three to four weeks when the tumor had reached about 190-250 mm^3 in size. […]. Water insoluble free CPT was dissolved/suspended in a mixture of DMSO/ethanol/PEG-400/water (1:1:2:1). CPT (4.5 mg/kg) and irinotecan (60 mg/kg) were administered by intraperitoneal injection, while freshly prepared TT 1 solutions of various doses were administered intravenously by tail vein injection every 4 days for a total of three doses (days 1, 5, and 9). […]. Tumor volumes were measured and recorded every other day. The body weights were measured and recorded every day or every other day. The tumor volume was determined by measuring the tumor in two dimensions with calipers and using the formula “tumor volume=(length×width^2)/2”. Each animal was euthanized once the tumor volume reached the predetermined end point size of 2000 mm^3.

The test system of the next data set is HT-29 cells. Particulars: SAPDs 10 mg/kg i.v. days 1, 5, 9, 13; irinotecan 100 mg/kg i.p. days 1, 8, 15. The source says:
Antitumor efficacy study of SAPDs at the same dose on a HT-29 tumor model. […] When the averaged tumor size reached 75-95 mm^3, mice were randomly divided into six groups. […] The tumor volumes and body weights were monitored and recorded every two or three days. The tumor volume was estimated by measuring the length and width with calipers and using the equation “tumor volume=(length×width^2)/2”. Mice were euthanized once the tumor volume reached 1000 mm^3.

Data set [2] deals with U87 MG human brain cancer cells. As to the kind of experiment: cells. Particulars: U-87 MG, 48 h.
Method: The human brain cancer cell line U87 MG was a generous gift from Dr. Wirtz (ChemBE, JHU). DMEM (Invitrogen) containing 10% fetal bovine serum (FBS, Invitrogen) and 1% antibiotics (Invitrogen) was used for the culture of the U87 MG cells. Cancer cells were incubated at 37° C. in a humidified incubator (Oasis, Caron, Marietta, Ohio, USA) with an atmosphere of 5% CO2. […] U87 MG cells were seeded onto 96-well plates (5000 cells/well) and allowed to attach overnight. […] The stock solutions were then diluted with fresh medium to achieve final CPT concentrations of 0.1, 1, 10, 100, 500, 1000, 5000 and 10000 nM. After dilution, the nanotube-containing media were used to incubate cells immediately. Medium containing the same concentration of free CPT ranging from 0.1 to 10000 nM was also used to incubate the cells, with non-treated cells (solvent only) as the control group. In addition, irinotecan at the concentration of 0.1, 1, 5, 10, 50, 100 and 500 μM was employed as a second control. After 48 h incubation, the cell viability was evaluated using the SRB method according to the manufacturer's protocols (TOX-6, Sigma, St. Louis, Mo.).
For data set [3] the following is noted: in vivo; cited from earlier work.

Structures are written as SMILES.

Take `CCc1c2c(nc3ccc(OC(=O)N4CCC(N5CCCCC5)CC4)cc13)-c1cc3c(c(=O)n1C2)COC(=O)[C@]3(O)CC` [irinotecan, reference compound]: the results for the median survival (in data set [1]; in the data set on HT-29 cells) were 27 days and 51 days, respectively. Further, the midpoint of inhibition in data set [2], the IC50, lay at 6.5 µM. In addition, in data set [3], the “reported MTD” value is on record as 100 mg/kg.
